Assay results taken from US20240026458A1, “Method for Determining Sensitivity to an Antineoplastic Agent” (UNIVERSITÉ LIBRE DE BRUXELLES, priority 2020, published 2024).

Key:
surface CD44 = experiment: FACS analysis of surface CD44 in FAT1 KO cells treated with inhibitor; type: cell-based, human; settings: CAMK2 inhibitor (KN93) 10 μM, versus DMSO
Procedure: CD44 expression in FAT1 WT and FAT1 KO human SCC cells was performed after trypsinization of cells and incubation with APC conjugated anti-CD44 (Clone IM7, BioLegend Cat #103011, dilution 1:50) antibody. Living tumor cells were selected by forward and side scatter, doublets discriminating and DAPI dye exclusion.
For CAMK2 inhibition present inventors used CAMK2 inhibitor KN93 (Selleckchem Cat #57423, dissolved in DMSO) at 10 μM and present inventors incubated cells during 96 h refreshing the medium once after 48 h. After 96 h the cells were collected for WB as described above or for FACS analysis. For immunostaining present inventors followed the same treatment but the cells were plated previously on coverslips covered with gelatin.

SRC/YES phosphorylation = experiment: Western blot of phosphorylated SRC/YES in FAT1 KO cells treated with inhibitor; type: cell-based, human; settings: KN93 10 μM, 96 h, versus DMSO
Procedure: A388 cells (human skin SCC) cells were maintained in DMEM medium supplemented with 10% FBS, 100 U/ml Pen/Strep and 2 mM L-glutamine. 293T cells were maintained in DMEM (Gibco) supplemented with 10% FBS, 2 mM Glutamine, 100 U/ml Pen/Strep solution, MEM Non-Essential Amino Acids Solution and Pyruvate. All cell lines were acquired from ATCC and cultured at 37 degrees with 20% 02 and 5% CO2.
(§1) The cells were lysed in cell lysis buffer (Cell Signaling, catalog #9803) with phosphatase inhibitor cocktail (Cell Signaling, catalog 5870) and 1 mM PMSF (Sigma, Cat #P7626) for 5 minutes on ice, sonicated 5 times 10 seconds and then centrifuged for 10 min at 14.000 rpm at 4° C. A range of 5 to 30 micrograms of cell lysate was loaded in NuPage 10% Bis-Tris gel (Invitrogen, Cat #NP0315BOX) and separated by electrophoresis. Proteins were transferred on nitrocellulose membranes (Thermo Scientific, Cat #88018). […]

H3K27me3 = experiment: Western blot of global H3K27me3 in cells treated with inhibitor; type: cell-based, human; settings: versus DMSO
Procedure: The cells were lysed in cell lysis buffer (Cell Signaling, catalog #9803) with phosphatase inhibitor cocktail (Cell Signaling, catalog 5870) and 1 mM PMSF (Sigma, Cat #P7626) for 5 minutes on ice, sonicated 5 times 10 seconds and then centrifuged for 10 min at 14.000 rpm at 4° C. A range of 5 to 30 micrograms of cell lysate was loaded in NuPage 10% Bis-Tris gel (Invitrogen, Cat #NP0315BOX) and separated by electrophoresis. Proteins were transferred on nitrocellulose membranes (Thermo Scientific, Cat #88018). The membranes were incubated overnight with anti-phospho-CAMK2 (Rabbit, 1/133, Cell Signaling, clone D21E4, cat #12716) or anti-phospho-SCR Tyr416 (Rabbit, 1:3000, Cell Signaling, clone D49G4, Cat #6943) or anti-H3K27Me3 Lys27 (Rabbit, 1:3000, Millipore, Cat #17-622) or anti-phospho-MEK1/MEK2 Ser218, SER222, Ser226 (Rabbit, 1:1000, Invitrogen, Cat #44-454G) or anti-phospho-EGFR Y1197 (Rat, 1:500, R&D, MAB8058), anti-CAMK2 (pan) (Rabbit, 1/125, Cell Signaling, clone D11A10, cat #4436) or anti-SRC (Rabbit, 1:1000, Cell Signaling, clone32G6, Cat #2123) or anti-H3 (Rabbit, 1:6000, Abcam, Cat #ab1791) or anti-MEK1/MEK2 (Rabbit, 1:1000, Invitrogen, Cat #PA5-31917) or anti-EGFR (Rabbit, 1:1000, Cell Signaling, clone D38B1, Cat #4267), anti-YES (Rabbit, 1:1000, Cell Signaling, clone D9P3E, Cat #65890) and anti-β-actin (1:2000, Abcam, Cat #ab8227). […]

[1] = tested on: FAT1 WT and FAT1 KO human SCC cells (A388); experiment: Drug sensitivity assay (cell viability by FACS), FAT1 WT versus FAT1 KO cells; type: cell-based; settings: cell viability at 48 h, serial dilution of inhibitor, 5% FBS medium
Procedure: For the drug sensitivity assay, cells have been seeded at a density of 4000 cells/well in a 96 well plate. […] 48 hours after the start of treatment, cells have been harvested by trypsinization, and quantified by counting the number of living cells by FACS. Living cells were selected by forward and side scatter and by Hoechst dye exclusion. Each data point is the result of at least three independent replicates; each of the replicates is evaluated using a technical duplicate. Drug response curves and IC50 values have been calculated using the Prism8 software.

FAT1 KO human SCC cells = experiment: Expression of YAP1, ZEB1, E-Cadherin and SOX2 (immunostaining) in FAT1 KO cells treated with CAMK2 or SRC inhibitors; type: cell-based
Procedure: After 96 h the cells were collected for WB as described above or for FACS analysis. For immunostaining present inventors followed the same treatment but the cells were plated previously on coverslips covered with gelatin.
After 72 h the cells were collected for WB or immunostaining as described above.

SOX2 expression = experiment: SOX2 mRNA (RT-qPCR) and protein (Western blot) in FAT1 WT cells treated with EZH2 inhibitor; type: cell-based, human; settings: GSK343 500 nM, 7 days, versus DMSO
Procedure: as §1
RNA extraction from FACS isolated cells was performed using RNeasy micro kit (QIAGEN) according to the manufacturer's recommendations. For real-time PCR, after nanodrop quantification, the first strand cDNA was synthesized using Superscript II (Invitrogen) and random hexamers (Roche) in […] final volume. Control of genomic contaminations was measured for each sample by performing the same procedure with or without reverse transcriptase. Quantitative PCR assays were performed using 1 ng of cDNA as template, SYBRGreen mix (Applied Bioscience) on Light Cycler 96 (Roche) real-time PCR system. […]

[2] = FAT1 KO cells treated with inhibitor (data not shown)

Compound	levels of surface CD44 (surface CD44)	SRC/YES phosphorylation levels (SRC/YES phosphorylation)	global levels of H3K27me3 (H3K27me3; FAT1 KO cells treated with CAMK2 inhibitor)	sensitivity of FAT1 KO cells as compared to FAT1 WT cells [1]	SOX2 expression (FAT1 KO human SCC cells; FAT1 KO TCs treated with inhibitor (data not shown))	E-Cadherin expression (FAT1 KO human SCC cells; [2])	ZEB1 (FAT1 KO human SCC cells; [2])	colony morphology (FAT1 KO human SCC cells; [2])	nuclear YAP1 (FAT1 KO human SCC cells; [2])	SOX2 mRNA expression (SOX2 expression)	SOX2 protein expression (SOX2 expression)	H3K27me3 (H3K27me3; FAT1 WT cells, GSK343 500 nM, 7 days)
COc1ccc(S(=O)(=O)N(CCO)c2ccccc2CN(C)C/C=C/c2ccc(Cl)cc2)cc1 [KN93]	decreased significantly	greatly decreased	increased	significantly more sensitive	decrease	increase	strong decrease	more compact epithelial colonies	strong decrease			
CCCc1cc(C)[nH]c(=O)c1CNC(=O)c1cc(-c2ccnc(N3CCN(C)CC3)c2)cc2c1cnn2C(C)C [GSK343]										increased	increased	decreased
